Measured values published in publication PMC4475420 (Chemistry & biology, 2015).
Each block holds one compound with its values, some of them ahead of it.

How the values were obtained:
Assay in all cases: PK/LDH coupled NADH oxidation assay, […] nm
Assay type in all cases: biochemical
OtsA(Sco) = target: T1, OtsA(Sco) (Streptomyces coelicolor, UniProt Q9KXV1); details: 5 mM MgCl2, Tris-HCl pH 7.5
T1 sequence (Q9KXV1 1-462): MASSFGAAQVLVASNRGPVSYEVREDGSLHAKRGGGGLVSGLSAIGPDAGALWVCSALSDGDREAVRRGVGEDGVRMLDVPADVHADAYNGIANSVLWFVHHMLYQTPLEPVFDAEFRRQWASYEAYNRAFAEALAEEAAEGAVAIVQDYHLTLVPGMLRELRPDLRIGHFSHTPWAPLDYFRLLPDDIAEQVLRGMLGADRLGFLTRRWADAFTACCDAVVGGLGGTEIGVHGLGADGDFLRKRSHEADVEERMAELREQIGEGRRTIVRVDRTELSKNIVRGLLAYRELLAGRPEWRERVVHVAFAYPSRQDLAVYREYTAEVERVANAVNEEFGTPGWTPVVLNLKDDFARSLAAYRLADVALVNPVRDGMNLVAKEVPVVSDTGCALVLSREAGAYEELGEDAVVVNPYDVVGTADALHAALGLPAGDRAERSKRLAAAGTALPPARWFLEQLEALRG

Chimera-2 = details: 5 mM MgCl2, Tris-HCl pH 7.5
VldE = VldE (Streptomyces hygroscopicus, UniProt Q15JG1); details: 2 mM validamine 7-phosphate, 5 mM MgCl2, Tris-HCl pH 7.5
Sequence of VldE (Q15JG1 whole entry): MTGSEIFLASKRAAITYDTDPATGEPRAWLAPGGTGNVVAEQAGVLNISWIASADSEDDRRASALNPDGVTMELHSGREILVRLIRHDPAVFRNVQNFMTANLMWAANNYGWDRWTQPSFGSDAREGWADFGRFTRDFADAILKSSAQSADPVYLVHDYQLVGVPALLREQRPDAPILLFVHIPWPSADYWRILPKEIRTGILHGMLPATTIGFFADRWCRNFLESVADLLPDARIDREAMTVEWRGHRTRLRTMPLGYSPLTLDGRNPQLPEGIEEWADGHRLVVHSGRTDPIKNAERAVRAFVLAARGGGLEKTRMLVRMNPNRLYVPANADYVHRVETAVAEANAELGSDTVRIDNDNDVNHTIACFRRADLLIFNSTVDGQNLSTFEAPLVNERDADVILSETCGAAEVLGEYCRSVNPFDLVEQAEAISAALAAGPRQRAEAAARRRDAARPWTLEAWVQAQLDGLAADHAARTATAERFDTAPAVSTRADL

Chimera-1 = details: 5 mM MgCl2, Tris-HCl pH 7.5

SMILES: Nc1ccn([C@@H]2O[C@H](COP(=O)(O)OP(=O)(O)O[C@H]3O[C@H](CO)[C@@H](O)[C@H](O)[C@H]3O)[C@@H](O)[C@H]2O)c(=O)n1 [CDP-glucose]
- Km (OtsA(Sco); 2 mM glucose 6-phosphate): > 4 mM

SMILES: Nc1nc2c(ncn2[C@@H]2O[C@H](COP(=O)(O)OP(=O)(O)O[C@H]3O[C@H](CO)[C@@H](O)[C@H](O)[C@H]3O)[C@@H](O)[C@H]2O)c(=O)[nH]1 [GDP-glucose]
- Km (Chimera-2; 2 mM glucose 6-phosphate): 3.56 ± 0.38 mM
- Km (VldE): > 2.2 mM
- Km (Chimera-1; 2 mM validamine 7-phosphate): 1.1 ± 0.07 mM

SMILES: Nc1nc2c(ncn2[C@@H]2O[C@H](COP(=O)(O)OP(=O)(O)O[C@H]3C=C(CO)[C@@H](O)[C@H](O)[C@H]3O)[C@@H](O)[C@H]2O)c(=O)[nH]1 [GDP-valienol]
- Km (Chimera-1; 2 mM validamine 7-phosphate): > 10 mM

SMILES: O=P(O)(O)OC[C@H]1OC(O)[C@H](O)[C@@H](O)[C@@H]1O (stereo partly drawn) [glucose 6-phosphate]
- Km (Chimera-2; 2 mM GDP-glucose): 6.44 ± 0.95 mM

Further lines, results first:

- Km (Chimera-1; 2 mM GDP-glucose): 0.975 ± 0.1 mM
SMILES: N[C@H]1C[C@H](COP(=O)(O)O)[C@@H](O)[C@H](O)[C@H]1O [validamine 7-phosphate]

- Km (OtsA(Sco); 2 mM GDP-glucose): > 10 mM
- Km (Chimera-2; 2 mM GDP-glucose): 4.95 ± 0.7 mM
SMILES: O=P(O)(O)OC[C@H]1C[C@H](O)[C@H](O)[C@@H](O)[C@@H]1O [validol 7-phosphate]
